Results on 1 molecule are retold here after patent publication US20250151728A1, “ANTIMICROBIAL SYSTEM WITH BETA CARBOLINE ALKALOID AND INDOLE ALKALOID AND COMPOSITIONS COMPRISING THEM” (Conopco, Inc., d/b/a UNILEVER, priority 2021, published 2025).

Assay [1] deals with Enterobacter gergoviae ATCC 33028. Description: Liquid broth assay (MIC and checkerboard) against Enterobacter gergoviae. The class given is cell-based. Particulars: Pluralibacter gergoviae, ATCC33028, component by itself, 30° C., 24 hours, MIC = <25% growth vs control (OD600nm), read-out: minimal inhibitory concentration (MIC). The source says:
(§1) Naturally derived antimicrobial systems were made, as shown below by combining the indole alkaloid and beta carboline alkaloid. Two pools were set up and each pool contained 1 organism. The strains involved were Enterobacter gergoviae ATCC 33028 of the family Pluralibacter gergoviae, a Gram-negative and Aspergillus brasiliensis ATCC 16404. FIC test range was 16 times greater than the projected MIC for each sample.
(§2) The differing behaviors of inhibitory antimicrobials in isolation and mixtures have been widely explored using the concept of the Fractional Concentration and Fractional Inhibitory Concentration (FIC). See for instance JRW Lambert and R Lambert, J. Appl. Microbiol 95, 734 (2003); T. Jadavji, CG Prober and R Cheung, Antibacterial Agents and Chemotherapy 26, 91 (1984), and WO 2004/006876. MIC is the minimum inhibitory concentration a component prevents visible growth of a microbe. The FC and FIC parameters can be defined as follows: […]
(§3) Liquid broth assays (MIC and checkerboard) were conducted to identify the minimum concentration(s) of individual and binary combinations of natural preservation materials. […] Each of the two-preservation chemical/broth mixes was then combined in a third 96 well plate at varying concentrations and then inoculated with 1-5×10^6 microorganisms and incubated at 30° C. for 24 hours, after which optical densities at OD600nm were measured.

For assay [2], the system named is Aspergillus brasiliensis ATCC 16404. The experiment in a line: Liquid broth assay (MIC and checkerboard) against Aspergillus brasiliensis. To be noted: ATCC16404, component by itself, 30° C., 24 hours, MIC = <25% growth vs control (OD600nm). It counts as cell-based.
Excerpt: as §1, §2, §3

Consider `CN(C)Cc1c[nH]c2ccccc12` [Gramine, 1-(1H-Indol-3-yl)-N,N-dimethylmethanamine], for which the MIC in assay [1] and in assay [2] was 6250 µg/mL in each case.
